Patent US20100234381A1, “BIOMARKERS AND METHODS FOR DETERMINING SENSITIVITY TO VASCULAR ENDOTHELIAL GROWTH FACTOR RECEPTOR-2 MODULATORS” (Bristol-Myers Squibb Company, priority 2007, published 2010)
Entries after “also recorded” stand apart in the source; their conditions may differ.

Tested on: GEO colon cancer cells
Assay: FGF2-induced proliferation of GEO colon cancer cells (modified MTS assay)
Format: cell-based
Description: Cell Culture-GEO colon cancer cell line was routinely maintained in RPMI 1640 (Cellgro, Virginia) with 1% fetal bovine serum (Cellgro, Virginia) at 37° C. in 5% carbon dioxide/95% air in the presence of 100 units/ml penicillin, 100 μg/ml streptomycin (Cellgro, Virginia). Cell proliferation was determined by a modified MTS assay with […] 96® Aqueous One Solution Reagent (Promega, Madison, Wis.). […] After 180 minutes incubation, the optical densities (OD) of these samples were directly measured using SPECTRAMAX® plus (Molecular Device, California) and reference wavelength of 490 nm. […] Cell proliferation was determined by a modified MTS assay with […] […] After 180 minutes incubation, the optical densities (OD) of these samples were directly measured using SPECTRAMAX® plus (Molecular Device, California) and reference wavelength of 490 nm. […] […]

Substance: [(1R),2S]-2-Aminopropionic acid 2-[4-(4-fluoro-2-methyl-1H-indol-5-yloxy)-5-methylpyrrolo[2,1-f][1,2,4]triazin-6-yloxy]-1-methylethyl ester [brivanib]
- GEO tumor cell growth over time, stimulated with FGF2 (2.5 μM brivanib, day 1 to 8 compared to day 0 control): inhibited GEO tumor cell growth stimulated with FGF2
- inhibition of FGF2-induced cellular proliferation in GEO cells (FGF2 2.5 ng/ml, 72 hours): potently inhibited; also recorded: inhibited cancer cell growth directly; also recorded: inhibits colon cancer cell growth directly
